In patent US5621102A, “Process for preparing enantiomerically pure xanthine derivatives” (Cell Therapeutics, Inc., priority 1995, dated 1997):

Legend:
[1] = tested on: IL-1-α release in LPS activated PEC; assay: IL-1α release from LPS activated PEC, ELISA; format: cell-based; settings: Mus musculus, at 24 hours after LPS, read-out: maximum inhibition of IL-1α release
Description: Cells were isolated and treated with or without 250 μM CT1501R one hour prior to activation with 10 μg/ml LPS. At various times later, supernatants were harvested and assayed for IL-1-α by ELISA (+/-SD)
Murine peritoneal exudate cell macrophages (PEC) were isolated by perfusion of mouse peritoneum and plated into 96-well trays at 5×10^5 cells per well. Cells were stimulated with 5 μg/ml Salmonella abortus equi-derived endotoxin CLPS; Sigma Chemical Co., L-1887) or 50 ng/ml IL-1α (Genzyme; Cambridge, Mass.) with or without the addition of CT1501R added to the cultures one hour prior to addition of the stimulus. At various times thereafter, supernatants were removed and levels of either TNF-α or IL-1α were assayed using commercial 96-well microtiter immunoassay kits (Genzyme; TNF; Endogen, Boston, Mass.; IL-1α) according to manufacturer's specifications. For the adhesion studies, early passage human umbilical vein endothelial cells (HUVEC) were obtained from commercial suppliers (Clonetics, San Diego, Calif. or Cell Systems, Seattle, Wash.) and cultured in defined, Hepes buffered, serum free medium (Cell Systems, cat 301-180) supplemented with acidic FGF (Cell Systems cat 401-111). […] After addition of […] Hanks Balanced Salt Solution (HBSS), the microtiter plate was then analyzed on a Millipore Cytofiuor fluorescent plate reader (excitation 488 nm; emission 525 nm). […]

[2] = tested on: hair follicles of nu/nu mice; assay: nude mouse hair studies, topical application; format: in vivo
Description: This example illustrates nude mouse hair studies involving topical application of CT1501R. Six to eight week old, female, nu/nu mice from Charles River Laboratories were housed at Biosupport Research Support Services (Seattle, Wash.) in autoclaved micro isolator units with hyperchlorinated autoclaved water, irradiated rodent chow and kept under a laminar flow hood. Caging was changed weekly, and water was changed twice weekly. The mice were acclimated for 5 days before beginning each study.
The first topical formulation was prepared by adding CT1501R to a heated hydrophilic ointment (USP) at a 1% concentration, and allowed to solidify.
Nude mice were painted twice daily for 16 days with the first topical formulation of CT1501R on the left flank and another compound in the same base on the right flank with sterile applicators. Mice were handled under the laminar flow hood with applicator wearing face mask and sterile gloves. After 16 days, one mouse was sacrificed by cervical dislocation and skin biopsies were taken of the treated areas of the shoulder/flank and from the non-treated area of the dorsal pelvis (rump). Specimens were placed in 10% buffered formalin solution. Biopsies were sent to a veterinary dermopathologist for histopathology. Six weeks following treatment, a second mouse was euthanatized and biopsied the same as the first. Samples were sent for histopathology.
In a second experiment, topical application of CT1501R was performed along with a commercial topical minoxidil preparation (Rogaine®, Upjohn) that is approved for a hair growth indication. Five to six week old, female, nu/nu mice from Bantin and Kingman Universal were housed at Biosupport Research Support Services (Seattle, Wash.) in autoclaved micro isolator units with hyper chlorinated autoclaved water, irradiated rodent chow and kept under a laminar flow hood. Caging was changed weekly, and water was changed twice weekly. Mice were acclimated for 7 days before beginning study, […]

IL-1α = assay: mouse plasma IL-1α ELISA after endotoxin; format: in vivo, mice
Description: FIG. 7 illustrates data from mouse plasma IL-1α ELISA measurements. Data were compiled from an average of duplicate ELISA measurements from a single experiment with each point representing pooled serum from three mice.
For ELISA measurements of cytokine levels in plasma, blood was collected by retro-orbital or cardiac puncture of anesthetized mice, immediately centrifuged and the EDTA plasma stored at -70° C. Particulate free plasma was thawed on ice and cytokine levels determined utilizing commercial ELISA assays with normal mouse plasma used to generate standard curves. Murine tumor necrosis factor-α and interleukin-1α kits were purchased from Genzyme (Cambridge, Mass.) and Endogen (Boston, Mass.), respectively. Each data point was an average of two ELISA measurements made from EDTA serum pooled from three mice. The data summarized in Table 3 were compiled from two independent experiments; data from Table 4 and 5 were from single experiments of three mice per data point.
In particular, peak levels observed at 6, 12 and 18 hours post endotoxin were decreased 1.2, 4.3 and 3.2-fold, respectively. Finally, IL-6 measurements were made in a similar manner (Table 6, FIG. 8).

## C[C@@H](O)CCCCn1c(=O)c2c(ncn2C)n(C)c1=O [CT1501R, (R)-1-(5-hydroxyhexyl)-3,7-dimethylxanthine]
[1]
  inhibition at 250 µM: ~50%
[2]; first experiment, 1% in hydrophilic ointment, twice daily for 16 days
  hair follicles, histopathology of treated vs non treated skin sections: significantly more normal appearing hair follicles than the non treated sections
[2]; second experiment, 60% ETOH, 10% water, 30% PEG base, twice daily, 34 days
  hair follicles, subjective histopathological examination: greatest concentration of hair folicles
IL-1α; 6 hours post endotoxin
  decrease of peak plasma IL-1α vs endotoxin only: 1.2 fold
IL-1α; 12 hours post endotoxin
  decrease of peak plasma IL-1α vs endotoxin only: 4.3 fold
IL-1α; 18 hours post endotoxin
  decrease of peak plasma IL-1α vs endotoxin only: 3.2 fold
